Calls of active or inactive are those of the source. No rule for the calls is given here.
Test system: CCRIS mutagenicity, Ames/micronucleus/aberration tests
Experiment: CCRIS mutagenicity studies
[1] = Test System: AMES SALMONELLA TYPHIMURIUM, Strain/Indicator: TA98, Metabolic Activation: NONE, Method: STANDARD PLATE
[2] = Test System: AMES SALMONELLA TYPHIMURIUM, Strain/Indicator: TA98, Metabolic Activation: RAT, LIVER, S-9, AROCLOR 1254, Method: STANDARD PLATE
[3] = Test System: AMES SALMONELLA TYPHIMURIUM, Strain/Indicator: TA100, Metabolic Activation: NONE, Method: STANDARD PLATE
[4] = Test System: AMES SALMONELLA TYPHIMURIUM, Strain/Indicator: TA100, Metabolic Activation: RAT, LIVER, S-9, AROCLOR 1254, Method: STANDARD PLATE

CN(C)c1ccc(Cc2ccc(N(C)C)cc2)cc1
mutagenic call (Test System: AMES SALMONELLA TYPHIMURIUM, Strain/Indicator: TA98, Metabolic Activation: HAMSTER, LIVER, S-9, AROCLOR 1254, Method: STANDARD PLATE): inactive; negative | mutagenic call (Test System: AMES SALMONELLA TYPHIMURIUM, Strain/Indicator: TA98, Metabolic Activation: HAMSTER, LIVER, S-9, Method: STANDARD PLATE): inactive; negative | mutagenic call (Test System: AMES SALMONELLA TYPHIMURIUM, Strain/Indicator: TA98, Metabolic Activation: MOUSE, LIVER, S-9, Method: STANDARD PLATE): inactive; negative | mutagenic call [1]: inactive; negative | mutagenic call [2]: inactive; negative | mutagenic call (Test System: AMES SALMONELLA TYPHIMURIUM, Strain/Indicator: TA98, Metabolic Activation: RAT, LIVER, S-9, Method: STANDARD PLATE): inactive; negative | mutagenic call (Test System: AMES SALMONELLA TYPHIMURIUM, Strain/Indicator: TA100, Metabolic Activation: HAMSTER, LIVER, S-9, AROCLOR 1254, Method: STANDARD PLATE): inactive; negative | mutagenic call (Test System: AMES SALMONELLA TYPHIMURIUM, Strain/Indicator: TA100, Metabolic Activation: HAMSTER, LIVER, S-9, Method: STANDARD PLATE): inactive; negative | mutagenic call (Test System: AMES SALMONELLA TYPHIMURIUM, Strain/Indicator: TA100, Metabolic Activation: MOUSE, LIVER, S-9, Method: STANDARD PLATE): inactive; negative | mutagenic call [3]: inactive; negative | mutagenic call [4]: inactive; negative | mutagenic call (Test System: AMES SALMONELLA TYPHIMURIUM, Strain/Indicator: TA100, Metabolic Activation: RAT, LIVER, S-9, Method: STANDARD PLATE): inactive; negative | mutagenic call (Test System: AMES SALMONELLA TYPHIMURIUM, Strain/Indicator: TA1535, Metabolic Activation: HAMSTER, LIVER, S-9, AROCLOR 1254, Method: STANDARD PLATE): inactive; negative | mutagenic call (Test System: AMES SALMONELLA TYPHIMURIUM, Strain/Indicator: TA1535, Metabolic Activation: HAMSTER, LIVER, S-9, Method: STANDARD PLATE): inactive; negative | mutagenic call (Test System: AMES SALMONELLA TYPHIMURIUM, Strain/Indicator: TA1535, Metabolic Activation: MOUSE, LIVER, S-9, AROCLOR 1254, Method: STANDARD PLATE): inactive; negative | mutagenic call (Test System: AMES SALMONELLA TYPHIMURIUM, Strain/Indicator: TA1535, Metabolic Activation: MOUSE, LIVER, S-9, Method: STANDARD PLATE): inactive; negative | mutagenic call (Test System: AMES SALMONELLA TYPHIMURIUM, Strain/Indicator: TA1535, Metabolic Activation: NONE, Method: STANDARD PLATE): inactive; negative | mutagenic call (Test System: AMES SALMONELLA TYPHIMURIUM, Strain/Indicator: TA1535, Metabolic Activation: RAT, LIVER, S-9, AROCLOR 1254, Method: STANDARD PLATE): inactive; negative | mutagenic call (Test System: AMES SALMONELLA TYPHIMURIUM, Strain/Indicator: TA1535, Metabolic Activation: RAT, LIVER, S-9, Method: STANDARD PLATE): inactive; negative | mutagenic call (Test System: AMES SALMONELLA TYPHIMURIUM, Strain/Indicator: TA1537, Metabolic Activation: HAMSTER, LIVER, S-9, AROCLOR 1254, Method: STANDARD PLATE): inactive; negative | mutagenic call (Test System: AMES SALMONELLA TYPHIMURIUM, Strain/Indicator: TA1537, Metabolic Activation: HAMSTER, LIVER, S-9, Method: STANDARD PLATE): inactive; negative | mutagenic call (Test System: AMES SALMONELLA TYPHIMURIUM, Strain/Indicator: TA1537, Metabolic Activation: MOUSE, LIVER, S-9, AROCLOR 1254, Method: STANDARD PLATE): inactive; negative | mutagenic call (Test System: AMES SALMONELLA TYPHIMURIUM, Strain/Indicator: TA1537, Metabolic Activation: MOUSE, LIVER, S-9, Method: STANDARD PLATE): inactive; negative | mutagenic call (Test System: AMES SALMONELLA TYPHIMURIUM, Strain/Indicator: TA1537, Metabolic Activation: NONE, Method: STANDARD PLATE): inactive; negative | mutagenic call (Test System: AMES SALMONELLA TYPHIMURIUM, Strain/Indicator: TA1537, Metabolic Activation: RAT, LIVER, S-9, AROCLOR 1254, Method: STANDARD PLATE): inactive; negative | mutagenic call (Test System: AMES SALMONELLA TYPHIMURIUM, Strain/Indicator: TA1537, Metabolic Activation: RAT, LIVER, S-9, Method: STANDARD PLATE): inactive; negative | mutagenic call (Test System: AMES SALMONELLA TYPHIMURIUM, Strain/Indicator: TA1538, Metabolic Activation: HAMSTER, LIVER, S-9, Method: STANDARD PLATE): inactive; negative | mutagenic call (Test System: AMES SALMONELLA TYPHIMURIUM, Strain/Indicator: TA1538, Metabolic Activation: MOUSE, LIVER, S-9, AROCLOR 1254, Method: STANDARD PLATE): inactive; negative | mutagenic call (Test System: AMES SALMONELLA TYPHIMURIUM, Strain/Indicator: TA1538, Metabolic Activation: MOUSE, LIVER, S-9, Method: STANDARD PLATE): inactive; negative | mutagenic call (Test System: AMES SALMONELLA TYPHIMURIUM, Strain/Indicator: TA1538, Metabolic Activation: NONE, Method: STANDARD PLATE): inactive; negative | mutagenic call (Test System: AMES SALMONELLA TYPHIMURIUM, Strain/Indicator: TA1538, Metabolic Activation: RAT, LIVER, S-9, AROCLOR 1254, Method: STANDARD PLATE): inactive; negative | mutagenic call (Test System: AMES SALMONELLA TYPHIMURIUM, Strain/Indicator: TA1538, Metabolic Activation: RAT, LIVER, S-9, Method: STANDARD PLATE): inactive; negative | mutagenic call (Test System: E. COLI, Strain/Indicator: WP2 UVRA, Metabolic Activation: HAMSTER, LIVER, S-9, AROCLOR 1254, Method: STANDARD PLATE): inactive; negative | mutagenic call (Test System: E. COLI, Strain/Indicator: WP2 UVRA, Metabolic Activation: HAMSTER, LIVER, S-9, Method: STANDARD PLATE): inactive; negative | mutagenic call (Test System: E. COLI, Strain/Indicator: WP2 UVRA, Metabolic Activation: MOUSE, LIVER, S-9, AROCLOR 1254, Method: STANDARD PLATE): inactive; negative | mutagenic call (Test System: E. COLI, Strain/Indicator: WP2 UVRA, Metabolic Activation: MOUSE, LIVER, S-9, Method: STANDARD PLATE): inactive; negative | mutagenic call (Test System: E. COLI, Strain/Indicator: WP2 UVRA, Metabolic Activation: NONE, Method: STANDARD PLATE): inactive; negative | mutagenic call (Test System: E. COLI, Strain/Indicator: WP2 UVRA, Metabolic Activation: RAT, LIVER, S-9, AROCLOR 1254, Method: STANDARD PLATE): inactive; negative | mutagenic call (Test System: E. COLI, Strain/Indicator: WP2 UVRA, Metabolic Activation: RAT, LIVER, S-9, Method: STANDARD PLATE): inactive; negative | mutagenic call (Test System: MOUSE LYMPHOMA, Strain/Indicator: L5178Y (TK+/TK-), Metabolic Activation: RAT, LIVER, S-9, AROCLOR 1254, Method: SUSPENSION/PLATE): active; positive

CC(C)(C)NC[C@H](O)COc1nsnc1N1CCOCC1
mutagenic call [1]: inactive; negative | mutagenic call [2]: inactive; negative | mutagenic call [3]: inactive; negative | mutagenic call [4]: inactive; negative
